For 26 compounds, IC50, Activity and logD results are on record in ChEMBL document CHEMBL1770083, “2-(4-Carbonylphenyl)benzoxazole inhibitors of CETP: attenuation of hERG binding and improved HDLc-raising efficacy” (Bioorg Med Chem Lett, 2011).

Data set [1] addresses T1, Cholesteryl ester transfer protein (Homo sapiens, UniProt P11597).
T1 sequence (P11597 whole entry): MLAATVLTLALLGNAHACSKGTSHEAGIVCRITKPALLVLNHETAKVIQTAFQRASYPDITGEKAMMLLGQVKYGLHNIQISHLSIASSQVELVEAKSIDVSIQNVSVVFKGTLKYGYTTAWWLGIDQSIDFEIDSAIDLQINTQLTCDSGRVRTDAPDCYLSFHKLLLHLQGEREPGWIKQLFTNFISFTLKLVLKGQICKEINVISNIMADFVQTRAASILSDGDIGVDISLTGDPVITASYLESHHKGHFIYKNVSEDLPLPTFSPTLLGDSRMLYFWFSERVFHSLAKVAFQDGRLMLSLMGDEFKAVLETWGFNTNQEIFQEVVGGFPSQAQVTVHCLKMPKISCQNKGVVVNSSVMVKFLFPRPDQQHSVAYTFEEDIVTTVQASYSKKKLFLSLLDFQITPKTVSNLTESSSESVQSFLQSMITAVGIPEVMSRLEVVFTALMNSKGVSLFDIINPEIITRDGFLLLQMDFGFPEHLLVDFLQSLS
As to the kind of experiment: Inhibition of CETP.

Data set [2] addresses Voltage-gated inwardly rectifying potassium channel KCNH2 (Homo sapiens, UniProt Q12809). As to the kind of experiment: Displacement of [35S]MK499 from human ERG expressed in HEK cells. In kind it is cell-based, HEK293. In general terms: In a radioligand displacement assay an active substance lowers the binding of a labelled ligand.
Data set [3] concerns Mus musculus. As to the kind of experiment: Increase of HDL cholesterol level in transgenic mouse model at 10 mg/kg. In kind it is functional.
Data set [4] can be described thus: Lipophilicity, log D of the compound at pH 7.3 by HPLC. In kind it is physicochemical. As to conditions: buffer.

The term IC50 denotes the concentration needed to halve the response being measured. Low readings indicate greater potency in that assay, high ones weaker potency in that assay. By logD is commonly meant the decadic logarithm of the distribution of all forms, ionised or not, between an organic phase and buffer at a given pH. A lower logD goes with lower lipophilicity.

Voltage-gated inwardly rectifying potassium channel KCNH2, sequence (Q12809 whole entry): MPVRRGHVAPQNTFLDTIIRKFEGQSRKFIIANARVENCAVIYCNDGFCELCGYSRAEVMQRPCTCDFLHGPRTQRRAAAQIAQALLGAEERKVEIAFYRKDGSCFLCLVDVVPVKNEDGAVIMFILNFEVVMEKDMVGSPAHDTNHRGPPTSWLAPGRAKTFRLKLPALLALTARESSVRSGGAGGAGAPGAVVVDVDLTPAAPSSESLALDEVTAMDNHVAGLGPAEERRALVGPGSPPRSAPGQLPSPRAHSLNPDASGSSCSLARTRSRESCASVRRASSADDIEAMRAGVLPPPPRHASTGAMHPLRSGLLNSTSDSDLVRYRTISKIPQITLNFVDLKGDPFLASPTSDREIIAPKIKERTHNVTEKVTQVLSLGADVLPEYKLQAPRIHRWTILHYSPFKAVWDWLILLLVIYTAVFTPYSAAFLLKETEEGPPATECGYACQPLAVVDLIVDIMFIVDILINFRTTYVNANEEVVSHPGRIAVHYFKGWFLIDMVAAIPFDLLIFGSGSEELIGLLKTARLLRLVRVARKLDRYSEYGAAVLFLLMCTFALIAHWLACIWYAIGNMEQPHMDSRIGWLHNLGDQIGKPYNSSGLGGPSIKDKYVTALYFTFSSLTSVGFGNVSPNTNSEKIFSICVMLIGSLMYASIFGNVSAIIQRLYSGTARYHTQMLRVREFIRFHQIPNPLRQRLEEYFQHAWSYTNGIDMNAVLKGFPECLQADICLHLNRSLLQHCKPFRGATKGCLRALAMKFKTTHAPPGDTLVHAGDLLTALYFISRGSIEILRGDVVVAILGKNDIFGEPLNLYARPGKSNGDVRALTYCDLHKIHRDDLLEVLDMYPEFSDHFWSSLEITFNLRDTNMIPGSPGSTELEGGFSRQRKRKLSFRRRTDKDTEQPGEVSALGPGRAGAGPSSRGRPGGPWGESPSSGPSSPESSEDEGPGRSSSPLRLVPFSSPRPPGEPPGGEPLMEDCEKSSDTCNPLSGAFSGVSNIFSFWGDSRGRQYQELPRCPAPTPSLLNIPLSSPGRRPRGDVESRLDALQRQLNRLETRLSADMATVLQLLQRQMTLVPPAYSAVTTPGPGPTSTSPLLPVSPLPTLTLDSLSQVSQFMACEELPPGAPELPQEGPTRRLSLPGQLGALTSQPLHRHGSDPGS

On to `CC(C)c1cc(C#N)cc2nc(-c3ccc(C(=O)NC[C@H]4CC[C@@H](c5ccc(C(F)(F)F)cc5)CC4)cc3)oc12`, for which the 50% inhibitory concentration (IC50) is 134 nM in data set [1] and more than 30000 nM in data set [2].

As to `CC(C)c1cc(C#N)cc2nc(-c3ccc(C(=O)NC[C@H]4CN(c5ccc(-c6ccccc6OC(F)(F)F)cn5)C(=O)O4)cc3)oc12`, the IC50 came out at 140 nM in data set [1] and 3580 nM in data set [2].

Take `CC(C)c1cc(C#N)cc2nc(-c3ccc(C(=O)NC[C@H]4CC[C@@H](c5cc(C(F)(F)F)cc(C(F)(F)F)c5)CC4)cc3)oc12`: the figures for the half-maximal inhibitory concentration (IC50) in data set [1] and in data set [2] were 1040 nM and more than 30000 nM, respectively.

With `CC(C)Oc1ccc(F)cc1-c1ccc(N2C[C@@H](CNC(=O)c3ccc(-c4nc5cc(C#N)cc(C(C)C)c5o4)cc3)OC2=O)nc1`, the Activity in data set [3] stood at 24 mg/dL. Further, the IC50 in data set [1] is 66 nM; in data set [2], more than 30000 nM.

Regarding `CC(C)c1cc(C#N)cc2nc(-c3ccc(C(=O)NCC4CN(c5ccc(-c6ccccc6C(N)=O)cn5)C(=O)O4)cc3)oc12` (racemic), in data set [4], the logD worked out at 4.8. The compound further had an IC50 in data set [2] of more than 30000 nM.

Consider `C=C(C)c1ccc(N2CC(CNC(=O)c3ccc(-c4nc5cc(C#N)cc(C(C)C)c5o4)cc3)OC2=O)nc1` (racemic), for which the IC50 was 2340 nM in data set [1] and more than 30000 nM in data set [2]. For the same compound, in data set [4], the logD was found to be 5.4.

The compound `Cc1ccc(OC(C)C)c(-c2ccc(N3CC(CNC(=O)c4ccc(-c5nc6cc(C#N)cc(C(C)C)c6o5)cc4)OC3=O)nc2)c1` (racemic) showed an IC50 in data set [1] of 171 nM. In data set [4], this compound yielded a pH-dependent lipophilicity (logD) of 6.9.

In turn, `Cc1cccc([C@H]2CC[C@@H](CNC(=O)c3ccc(-c4nc5cc(C#N)cc(C(C)C)c5o4)cc3)CC2)c1` had a half-maximal inhibitory concentration (IC50) in data set [1] of 145 nM.

Consider `CC(C)c1cc(C#N)cc2nc(-c3ccc(C(=O)NC[C@H]4CC[C@H](c5ccc(Cl)cc5)CC4)cc3)oc12`, for which the 50% inhibitory concentration (IC50) in data set [1] is 77 nM; in data set [2], more than 30000 nM.

As to `CC(C)c1cc(C#N)cc2nc(-c3ccc(C(=O)NC[C@H]4CC[C@H](c5cccc(C(F)(F)F)c5)CC4)cc3)oc12`, in data set [1], the half-inhibitory concentration (IC50) stood at 100 nM.

Regarding `CC(C)c1cc(C#N)cc2nc(-c3ccc(C(=O)NCC4CN(c5ccc(-c6ccccc6C#N)cn5)C(=O)O4)cc3)oc12` (racemic), the results for the half-inhibitory concentration (IC50) in data set [1] and in data set [2] were 829 nM and 1190 nM, respectively. This compound gave a logD in data set [4] of 5.1.

Turning to `CC(C)c1cc(C#N)cc2nc(-c3ccc(C(=O)NC[C@@]4(C)CN(c5ccc(-c6ccccc6OC(F)(F)F)cn5)C(=O)O4)cc3)oc12`, in data set [3], the Activity came to 27 mg/dL. Besides, the IC50 in data set [1] is 18 nM; in data set [2], more than 30000 nM.

In the case of `CC(C)c1cc(C#N)cc2nc(-c3ccc(C(=O)NCC4CN(c5ccc(Cl)cn5)C(=O)O4)cc3)oc12` (racemic), in data set [1], 19200 nM corresponded to half-maximal inhibition (IC50). In addition, in data set [4], the pH-dependent lipophilicity (logD) was 5.8.

In data set [1], `Cc1cccc([C@H]2CC[C@H](CNC(=O)c3ccc(-c4nc5cc(C#N)cc(C(C)C)c5o4)cc3)CC2)c1` showed a half-inhibitory concentration (IC50) of 133 nM.

With `CC(C)Oc1ccc(F)cc1-c1ccc(N2CC(CNC(=O)c3ccc(-c4nc5cc(C#N)cc(C(C)C)c5o4)cc3)OC2=O)nc1` (racemic), the IC50 in data set [1] is 124 nM; in data set [2], more than 30000 nM. For the same compound, the pH-dependent lipophilicity (logD) in data set [4] was determined as 6.6.

`CC(C)c1cc(C#N)cc2nc(-c3ccc(C(=O)NC[C@@H]4CN(c5ccc(-c6ccccc6OC(F)(F)F)cn5)C(=O)O4)cc3)oc12`: the Activity in data set [3] stood at 19 mg/dL. The IC50 in data set [1] is 46 nM; in data set [2] it was more than 30000 nM.

Turning to `CC(C)Oc1ccc(F)cc1-c1ccc(N2CCC(CNC(=O)c3ccc(-c4nc5cc(C#N)cc(C(C)C)c5o4)cc3)CC2)nc1`, in data set [3], the Activity is 24 mg/dL. Also, the pH-dependent lipophilicity (logD) in data set [4] came out at 7.2.

In data set [1], `CC(C)c1cc(C#N)cc2nc(-c3ccc(C(=O)NC[C@H]4CC[C@@H](c5cccc(C(F)(F)F)c5)CC4)cc3)oc12` showed an IC50 of 78 nM.

With `CC(C)Oc1ccc(F)cc1-c1ccc(N2C[C@H](CNC(=O)c3ccc(-c4nc5cc(C#N)cc(C(C)C)c5o4)cc3)OC2=O)nc1`, the figures for the half-maximal inhibitory concentration (IC50) in data set [1] and in data set [2] were 154 nM and more than 30000 nM, respectively.

On to `CC(C)c1cc(C#N)cc2nc(-c3ccc(C(=O)NC[C@H]4CC[C@H](c5ccc(C(F)(F)F)cc5)CC4)cc3)oc12`, for which the IC50 in data set [1] is 40 nM; in data set [2], more than 30000 nM.

`CC(C)c1cc(C#N)cc2nc(-c3ccc(C(=O)NC[C@]4(C)CN(c5ccc(-c6ccccc6OC(F)(F)F)cn5)C(=O)O4)cc3)oc12` gave an Activity in data set [3] of 33 mg/dL. Also, the 50% inhibitory concentration (IC50) is 22 nM in data set [1] and more than 30000 nM in data set [2].

With `CC(C)c1cc(C#N)cc2nc(-c3ccc(C(=O)NC[C@H]4CC[C@H](c5ccc(C(C)(C)C)cc5)CC4)cc3)oc12`, the Activity in data set [3] is 18 mg/dL. The IC50 was 38 nM in data set [1] and more than 30000 nM in data set [2].

Regarding `CC(C)c1cc(C#N)cc2nc(-c3ccc(C(=O)NCC4CN(c5ccc(-c6ccccc6OC(F)(F)F)cn5)C(=O)O4)cc3)oc12` (racemic), the IC50 is 67 nM in data set [1] and more than 30000 nM in data set [2]. The same compound had a logD in data set [4] of 6.4.

`CC(C)c1cc(C#N)cc2nc(-c3ccc(C(=O)NC[C@H]4CC[C@H](c5cc(C(F)(F)F)cc(C(F)(F)F)c5)CC4)cc3)oc12`: the IC50 is 84 nM in data set [1] and more than 30000 nM in data set [2].

For `Cc1ccc(-c2ccc(N3CC(CNC(=O)c4ccc(-c5nc6cc(C#N)cc(C(C)C)c6o5)cc4)OC3=O)nc2)s1` (racemic), the 50% inhibitory concentration (IC50) in data set [1] came to 955 nM; in data set [2], 12700 nM. Besides, the logD in data set [4] turned out to be 6.2.

`CC(C)c1cc(C#N)cc2nc(-c3ccc(C(=O)NC[C@H]4CC[C@@H](c5ccc(C(C)(C)C)cc5)CC4)cc3)oc12` came in with an Activity in data set [3] of 17 mg/dL. Moreover, the 50% inhibitory concentration (IC50) was 37 nM in data set [1] and more than 30000 nM in data set [2].
